Data reported in ChEMBL document CHEMBL1145484, “Evaluation of the metS and murB loci for antibiotic discovery using targeted antisense RNA expression analysis in Bacillus anthracis” (2007).
≈ marks a conversion by molar mass, not a printed value.

Test system: Bacillus anthracis
Experiment: Antibacterial activity against Bacillus anthracis UM23C1-1
Type: functional

O=C(O)c1ccc(OCc2nc3ccccc3[nH]2)c(OCc2ccc(Cl)cc2Cl)c1
MIC: 2 µg/mL (≈ 4.51 µM)
